Experimental data taken from PubChem BioAssay AID1259407 (Chemical Carcinogenesis Research Information System (CCRIS), 2018).
Active and inactive are the calls of the source. How the calls were made is not given here.

System: CCRIS mutagenicity, Ames/micronucleus/aberration tests
Test: CCRIS mutagenicity studies
Conditions: Test System: AMES SALMONELLA TYPHIMURIUM
[1] = Strain/Indicator: TA98, Metabolic Activation: NONE, Method: PREINCUBATION
[2] = Strain/Indicator: TA1535, Metabolic Activation: NONE, Method: PREINCUBATION

With Cc1ccccc1C the mutagenic call (Strain/Indicator: TA98, Metabolic Activation: HAMSTER, LIVER, S-9, AROCLOR 1254, Method: PREINCUBATION) was “inactive; negative”, the mutagenic call [1] was “inactive; negative” and the mutagenic call (Strain/Indicator: TA98, Metabolic Activation: NONE, Method: STANDARD PLATE) was “inactive; negative”. For the same molecule, the mutagenic call (Strain/Indicator: TA98, Metabolic Activation: RAT, LIVER, S-9, AROCLOR 1254, Method: PREINCUBATION) was “inactive; negative”, the mutagenic call (Strain/Indicator: TA98, Metabolic Activation: RAT, LIVER, S-9, AROCLOR, Method: STANDARD PLATE) was “inactive; negative” and the mutagenic call (Strain/Indicator: TA100, Metabolic Activation: HAMSTER, LIVER, S-9, AROCLOR 1254, Method: PREINCUBATION) was “inactive; negative”. The mutagenic call (Strain/Indicator: TA100, Metabolic Activation: NONE, Method: PREINCUBATION) was “inactive; negative”, the mutagenic call (Strain/Indicator: TA100, Metabolic Activation: NONE, Method: STANDARD PLATE) was “inactive; negative” and the mutagenic call (Strain/Indicator: TA100, Metabolic Activation: RAT, LIVER, S-9, AROCLOR 1254, Method: PREINCUBATION) was “inactive; negative”. For the same molecule, the mutagenic call (Strain/Indicator: TA100, Metabolic Activation: RAT, LIVER, S-9, AROCLOR, Method: STANDARD PLATE) was “inactive; negative”, the mutagenic call (Strain/Indicator: TA1535, Metabolic Activation: HAMSTER, LIVER, S-9, AROCLOR 1254, Method: PREINCUBATION) was “inactive; negative” and the mutagenic call [2] was “inactive; negative”. The mutagenic call (Strain/Indicator: TA1535, Metabolic Activation: RAT, LIVER, S-9, AROCLOR 1254, Method: PREINCUBATION) was “inactive; negative”, the mutagenic call (Strain/Indicator: TA1537, Metabolic Activation: HAMSTER, LIVER, S-9, AROCLOR 1254, Method: PREINCUBATION) was “inactive; negative” and the mutagenic call (Strain/Indicator: TA1537, Metabolic Activation: NONE, Method: PREINCUBATION) was “inactive; negative”. The mutagenic call (Strain/Indicator: TA1537, Metabolic Activation: RAT, LIVER, S-9, AROCLOR 1254, Method: PREINCUBATION) was “inactive; negative”, the mutagenic call (Strain/Indicator: UTH8413, Metabolic Activation: NONE, Method: STANDARD PLATE) was “inactive; negative” and the mutagenic call (Strain/Indicator: UTH8413, Metabolic Activation: RAT, LIVER, S-9, AROCLOR, Method: STANDARD PLATE) was “inactive; negative”. The mutagenic call (Strain/Indicator: UTH8414, Metabolic Activation: NONE, Method: STANDARD PLATE) was “inactive; negative” and the mutagenic call (Strain/Indicator: UTH8414, Metabolic Activation: RAT, LIVER, S-9, AROCLOR, Method: STANDARD PLATE) was “inactive; negative”.
O[C@H]1[C@H]2O[C@H]2C=C[C@@H]1O was tested, and the mutagenic call (Strain/Indicator: TA97, Metabolic Activation: NONE, Method: PREINCUBATION) was “inactive; negative”, the mutagenic call [1] was “inactive; negative” and the mutagenic call [2] was “active; positive”.
